c1ccc2c(c1)OP1(=NP3(=NP4(=N1)Oc1ccccc1O4)Oc1ccccc1O3)O2
Conditions | solubility (mole fraction)
in 1,2-dichloroethane, 293.25 K | 0.000409
in 1,2-dichloroethane, 298.35 K | 0.000585
in 1,2-dichloroethane, 303.15 K | 0.000765
in 1,2-dichloroethane, 308.15 K | 0.00107
in 1,2-dichloroethane, 313.25 K | 0.0015
in 1,2-dichloroethane, 318.55 K | 0.00195
in 1,2-dichloroethane, 323.15 K | 0.00252
in 1,2-dichloroethane, 328.55 K | 0.00324
in 1,2-dichloroethane, 333.15 K | 0.00419
in 1,2-dichloroethane, 338.25 K | 0.00582
in THF, 291.95 K | 0.000921
in THF, 298.25 K | 0.00112
in THF, 303.65 K | 0.00137
in THF, 307.95 K | 0.00159
in THF, 313.25 K | 0.00188
in THF, 318.35 K | 0.00218
in THF, 323.15 K | 0.0025
in THF, 328.25 K | 0.00292
in acetone, 294.35 K | 0.00025
in acetone, 298.35 K | 0.000323
in acetone, 303.45 K | 0.000429
in acetone, 308.65 K | 0.000588
in acetone, 313.35 K | 0.000759
in acetone, 318.15 K | 0.000977
in acetone, 323.25 K | 0.00126
in acetonitrile, 293.25 K | 0.000116
in acetonitrile, 298.15 K | 0.000217
in acetonitrile, 303.25 K | 0.000289
in acetonitrile, 308.15 K | 0.000369
in acetonitrile, 313.55 K | 0.000471
in acetonitrile, 318.25 K | 0.000586
in acetonitrile, 323.15 K | 0.000743
in acetonitrile, 328.35 K | 0.000922
in acetonitrile, 333.15 K | 0.00115
in chloroform, 298.15 K | 0.00214
in chloroform, 303.05 K | 0.0027
in chloroform, 308.05 K | 0.00334
in chloroform, 313.65 K | 0.00427
in chloroform, 318.55 K | 0.00519
in chloroform, 323.05 K | 0.00628
in chloroform, 328.75 K | 0.00771
in dichloromethane, 288.15 K | 0.00108
in dichloromethane, 291.55 K | 0.00127
in dichloromethane, 294.45 K | 0.00145
in dichloromethane, 298.35 K | 0.00175
in dichloromethane, 303.45 K | 0.00219
in dichloromethane, 308.65 K | 0.00276
in ethanol, 293.95 K | 9.52e-05
in ethanol, 298.05 K | 0.000117
in ethanol, 303.25 K | 0.000153
in ethanol, 308.35 K | 0.000194
in ethanol, 313.35 K | 0.000234
in ethanol, 318.15 K | 0.000308
in ethanol, 322.95 K | 0.00038
in ethanol, 328.15 K | 0.000451
in ethanol, 332.45 K | 0.000562
in ethyl acetate, 298.15 K | 0.000419
in ethyl acetate, 303.35 K | 0.000563
in ethyl acetate, 308.25 K | 0.000675
in ethyl acetate, 313.45 K | 0.000856
in ethyl acetate, 318.25 K | 0.00107
in ethyl acetate, 323.15 K | 0.00133
in ethyl acetate, 328.15 K | 0.00166
in ethyl acetate, 332.45 K | 0.00188
in toluene, 293.15 K | 0.000667
in toluene, 298.25 K | 0.000868
in toluene, 303.15 K | 0.00108
in toluene, 308.35 K | 0.00137
in toluene, 313.55 K | 0.0017
in toluene, 318.25 K | 0.00205
in toluene, 323.15 K | 0.00249
in toluene, 328.35 K | 0.00305
in toluene, 333.15 K | 0.00367
in toluene, 338.25 K | 0.00442
